Measured values reported in patent US9249132B2, “Substituted bicyclic aromatic compounds as S-nitrosoglutathione reductase inhibitors” (Nivalis Therapeutics, Inc., priority 2010, dated 2016).

Tests used:
[1] = system: ovalbumin (OVA)-induced asthma; experiment: Mouse model of ovalbumin (OVA)-induced asthma, eosinophil infiltrate in BALF; assay type: in vivo; details: three oral doses of 10 mg/kg at 48 h, 24 h, and 1 h prior to assessment; p<0.05
Protocol: A mouse model of ovalbumin (OVA)-induced asthma was used to screen GSNOR inhibitors for efficacy against methacholine (MCh)-induced bronchoconstriction/airway hyper-responsiveness. This is a widely used and well characterized model that presents with an acute, allergic asthma phenotype with similarities to human asthma. Efficacy of GSNOR inhibitors was assessed using a protocol in which GSNOR inhibitors were administered after OVA sensitization and airway challenge, and prior to challenge with MCh. Bronchoconstriction in response to challenge with increasing doses of MCh was assessed using whole body plethysmography (Penh; Buxco). The amount of eosinophil infiltrate into the bronchoaveolar lavage fluid (BALF) was also determined as a measure of lung inflammation. […]
In vivo airway responsiveness to methacholine was measured 24 h after the last OVA challenge in conscious, freely moving, spontaneously breathing mice with whole body plethysmography using a Buxco chamber (Wilmington, N.C.). […] The degree of bronchoconstriction was expressed as enhanced pause (Penh), a calculated dimensionless value, which correlates with the measurement of airway resistance, impedance, and intrapleural pressure in the same mouse. Penh readings were taken and averaged for 4 min. after each nebulization challenge. […]

[2] = system: dextran sodium sulfate (DSS)-induced IBD; experiment: Acute prophylactic model of DSS-induced IBD; assay type: in vivo, mouse
From the text: Acute and chronic models of dextran sodium sulfate (DSS)-induced IBD in mice were used to explore efficacy of GSNORi against this disease. Acute and chronic DSS-induced IBD are widely used and well characterized models that induce pathological changes in the colon similar to those observed in the human disease. In these models and in human disease, epithelial cells within the crypts of the colon are disrupted, leading to dysfunction of the epithelial barrier and the ensuing tissue inflammation, edema, and ulceration. GSNORi therapy may benefit IBD by restoring s-nitrosoglutathione (GSNO) levels, and thus prevent or reverse the epithelial barrier dysfunction. Experimental IBD was induced by administration of DSS in the drinking water of male C57B1/6 mice (N=8 to 10 mice per group) for 6 consecutive days. GSNORi was dosed orally at doses of 0.1 to 10 mg/kg/day for 10 days starting two days prior to and continuing two days post DSS exposure. Two days post DSS exposure, the effect of GSNORi was assessed in a blinded fashion via endoscopy and histopathology using a five point scale ranging from a score=0 (normal tissue) through a score=4 (ulcerative tissue damage and marked pathological changes). Levels of circulating cytokines involved in inflammatory pathways were also assessed. The effect of GSNORi was compared to vehicle treated controls. The corticosteroid, prednisolone, was used as the positive control in this study and was administered daily at 3 mg/kg/day via oral dosing. Naïve mice (N=5) were also assessed as a normal tissue control.

[3] = acute model, oral 1 mg/kg/day for 10 consecutive days, prophylactic dosing regimen

O=C(O)c1ccc(-c2ccc3cc(O)ccc3c2)c(Cl)c1 [Example 1, 3-chloro-4-(6-hydroxynaphthalen-2-yl)benzoic acid]
decrease of eosinophil infiltration in BAL, of vehicle control [1]: 44%
colon injury (in words) ([2]; acute DSS-induced IBD): attenuated colon injury
decrease of percent of mice presenting with severe colon injury scores via endoscopy, of vehicle control [2, 3]: 17%
decrease of percent of mice presenting with severe colon injury scores via histopathology, of vehicle control [2, 3]: 21%
decrease of percent of mice presenting with severe endoscopy scores, of vehicle control ([2]; acute model, oral 10 mg/kg/day for 10 days, p<0.05): 72%
